Patent US7507725B2, “Compounds with sulphonamide group and pharmaceutical compositions containing these compounds” (Schering AG, priority 2000, dated 2009)

Assays:
[1] = tested on: erythrocytes; test: Distribution of total radioactivity (3H/14C) on erythrocytes and plasma after one-time oral administration (FIG. 1); assay type: in vivo; details: 3H-labeled steroid skeleton
Source text: There are indications that in oral administration, both radicals R^1 and R^2, if they are different from a hydrogen atom, are cleaved off and are replaced by a hydrogen atom, so that in this case, not the group —SO2NR^1R^2, but rather the group —SO2NH2 is provided for the uptake into erythrocytes or binding to erythrocytes. […] The data also confirm that substances according to the invention are enriched in the erythrocyte compartment relative to the plasma.

[2] = Hepatic estrogenicity after oral administration; assay type: in vivo
Source text: After oral administration, estradiol sulfamate is resorbed by the gastrointestinal tract and is taken up into erythrocytes or bonded to erythrocytes. […] The estradiol sulfamate is enriched in the erythrocytes by a multiple (factor: 98:2) of the plasma concentration, whereby a depot of the estradiol sulfamate is produced that makes possible the slow release of the estradiol sulfamate into peripheral tissues and target tissues (see FIG. 2). This makes possible an extension of the dwell time of the estradiol sulfamate in the organism, and the occurrence of very high levels in the plasma is avoided.

[3] = tested on: erythrocytes; test: Stability of the prodrug and release of the active ingredient in erythrocytes, plasma and tissues; assay type: in vitro ADME
Source text: If the compounds act as a prodrug, the therapeutically desirable action is obtained by release, especially hydrolytic cleavage, of the active ingredient that is contained in the product and/or its metabolites.

[4] = molecular target: T1, carboanhydrase II (hCA II) (Homo sapiens, UniProt P00918); test: Affinity chromatography of erythrocyte lysate proteins on immobilized estradiol sulfamate derivative, eluate analysed by Western blot; assay type: binding; details: ligand J1242 immobilized on E-AH-sepharose
T1 construct: proteins of erythrocyte-lysates were separated on the column; from tissue; host or cells: erythrocytes (lysate)
Source text: In FIG. 3, the chemical synthesis of a linkable estradiol sulfamate (J1242) is shown, which is described in S. Schwarz et al., Steroids 64 (1999) 460–471.
After the estradiol sulfamate derivative is immobilized in the column material (E-AH-sepharose), proteins of erythrocyte-lysates were separated on the column. The protein that is responsible for the binding of estradiol sulfamate in erythrocytes was adsorbed on the surface of the affinity chromatography column. After the protein remaining on the column was washed and eluted with an acetate buffer, the eluate was analyzed with use of the “Western Plot Technique” (see FIGS. 4 and 5).

17β-hydroxy-estra-1,3,5(10)-trien-3-yl-(N-acetyl)sulfamate [J1045]
presence of the 14C-labeled acyl substituent of the sulfamate radical in the blood [1]: no longer present in the-blood

C[C@]12CC[C@@H]3c4ccc(OS(N)(=O)=O)cc4CC[C@H]3[C@@H]1CC[C@@H]2O [J995, estradiol sulfamate]
hepatic estrogenicity [2]: reduced hepatic estrogenicity | site of release of the active ingredient from the prodrug [3]: only in the plasma or in tissues | stability of the compound in erythrocytes ([3]; erythrocytes): stable in the erythrocytes | binding to carrier protein in erythrocytes [4]: binds to the carboanhydrase II (hCA II)
